# Data: patent US6897028B1, “Identification of molecular targets” (Florida State University, priority 1997, dated 2005)
# How the values were obtained:
# [1] = biological target: human LIF (Homo sapiens, UniProt P15018); test: ELISA binding of biotinylated dioxin to LIF; details: species not given
# Experimental: The applicants utilized the same biotinylated dioxin as Petrenko in an ELISA assay for binding to LIF, to several mutants of the LIF protein changed in the EPFP homology domain (residues 50-53), to anti-dioxin antibodies as a positive control, and to ciliary neurotrophic factor (CNTF) (structurally similar to LIF but lacking the SEQ. ID NO. 5 motif) as a negative control. […] to human and murine LIF with a KD of approximately 10-100 μM, indicating an affinity approximately 10,000 fold less than the anti-dioxin antibodies used as a positive control.
# [2] = biological target: T1, Bcl-2/GST fusion protein (Homo sapiens, UniProt P10415); test: ELISA binding of Bcl-2/GST fusion protein to immobilized biotinylated taxane; details: confirmation of binding of Bcl-2 to taxol
# T1 sequence (P10415 whole entry, the tested form may be a part): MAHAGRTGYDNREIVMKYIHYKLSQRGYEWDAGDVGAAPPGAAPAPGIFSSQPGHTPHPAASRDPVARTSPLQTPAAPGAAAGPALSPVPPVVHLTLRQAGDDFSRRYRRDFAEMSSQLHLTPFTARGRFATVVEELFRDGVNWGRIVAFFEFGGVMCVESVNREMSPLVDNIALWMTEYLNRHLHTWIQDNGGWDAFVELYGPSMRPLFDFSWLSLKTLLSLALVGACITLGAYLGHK
# Description: ELISA binding assays were used to determine if the Bcl-2/GST fusion protein binds directly to immobilized biotinylated taxol. Anti-Bcl-2 antibodies were used to detect Bcl-2 binding. […] The x-axis is the log nM concentration of protein in solution (Bcl-2 or Bcl-XL); the y-axis is the uncorrected optical density at 490 nm. The insert is the chemical structure of the biotinylated taxol used in the selection of peptides.
# [3] = test system: 697 human acute leukemia pre-B cells; details: 697 cells; cited from earlier work
# [4] = biological target: T1, Bcl-2/GST fusion protein; test: Circular dichroism spectroscopy of Bcl-2/GST with and without taxol; type: binding
# Description: Each spectrum is the averaged result of five spectra and subtracted baselines with standard deviations as indicated. These differences are much larger than the error bars (standard deviations) in the measurements, and involve a change in both the shape of the curve (ratio of the 220/210 nm peaks) and the peak positions. The secondary structures calculated for the Bcl-2 fusion protein with and without taxol differ by approximately 4%, and appear to involve a change in a region of the molecule that is found in a beta-turn conformation. This corresponds to the type of secondary structure which is predicted for the HTPHP-containing portion of the Bcl-2 loop region (SEQ. ID No. 3). […] Homology between TAX2.29 and human Bcl-2 lies between positions 1 through 12 and residues 55 through 66 respectively, inferring a minimum drug/protein interaction of at least twelve amino acids.
# [5] = biological target: GST (Schistosoma japonicum, UniProt P08515); test: Circular dichroism control: purified GST with and without taxol; type: binding; details: GST alone
# GST, sequence (P08515 whole entry): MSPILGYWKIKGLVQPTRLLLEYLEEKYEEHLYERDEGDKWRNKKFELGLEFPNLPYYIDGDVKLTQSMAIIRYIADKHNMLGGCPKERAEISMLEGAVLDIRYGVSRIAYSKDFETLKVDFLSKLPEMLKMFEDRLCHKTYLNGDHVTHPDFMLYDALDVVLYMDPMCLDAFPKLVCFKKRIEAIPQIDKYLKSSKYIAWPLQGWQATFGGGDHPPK
# Experimental: In a control experiment, taxol was added to purified GST from S. japonicum. […] The differences are far smaller than the error bars, and there is no change in the 220/210 nm ratio, nor is a peak shift observed. This means that were there any net structural change within the GST molecule alone, it would involve less than 0.5% of its total secondary structure. […] Furthermore, this binding has significant structural consequences for the Bcl-2 protein, involving approximately 15% to 20% of the loop residues.
# human LIF, sequence (P15018 23-202): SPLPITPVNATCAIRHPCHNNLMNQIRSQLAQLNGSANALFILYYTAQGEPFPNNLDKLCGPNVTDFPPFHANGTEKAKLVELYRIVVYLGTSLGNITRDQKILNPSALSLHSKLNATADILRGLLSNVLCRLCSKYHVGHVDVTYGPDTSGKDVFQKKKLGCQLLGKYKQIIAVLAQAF
SMILES,binding affinity in words [1],binding affinity in words [2],apoptosis [3],phosphorylation of Bcl-2 [3],"difference in calculated secondary structure with and without taxol ([4]; CD, beta-turn region)",conformational change upon binding taxol (CD spectrum) ([4]; spectra with and without taxol),CD spectra with and without taxol [5],net structural change as share of total secondary structure [5]
C1=COC=CO1 [dioxin],at least micromolar affinity,–,–,–,–,–,–,–
CC(=O)O[C@H]1C(=O)[C@@]2(C)[C@H]([C@H](OC(=O)c3ccccc3)[C@]3(O)C[C@H](OC(=O)[C@H](O)[C@@H](NC(=O)c4ccccc4)c4ccccc4)C(C)=C1C3(C)C)[C@]1(OC(C)=O)CO[C@@H]1C[C@@H]2O [taxol],–,micromolar affinity,induces,induces,approximately 4%,substantial conformational change,virtually identical,less than 0.5%
CC(=O)O[C@@]12CO[C@@H]1C[C@H](O)[C@@]1(C)C(=O)[C@H](O)C3=C(C)[C@@H](OC(=O)[C@H](O)[C@@H](NC(=O)OC(C)(C)C)c4ccccc4)C[C@@](O)([C@@H](OC(=O)c4ccccc4)[C@H]21)C3(C)C [taxotere],–,–,induces,induces,–,–,–,–
